Experimental data published in the supplement of paper PMC10331698.
± gives the standard deviation of the averaged measurements.

Legend:
Assay in all cases: level (log10 ratio to DMSO vehicle control); higher = higher biomarker level / cell amount than vehicle control
[1] = compound: CN(C(=O)C(F)(F)C(F)(F)C(F)(F)F)[Si](C)(C)C [N-Methyl-N-trimethylsilylheptafluorobutyramide] (in DMSO)
Protocol: (§1)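 BioMAP Diversity Plus panel of 12 human primary cell co-culture systems (3C, 4H, LPS, SAg, BT, BF4T, BE3C, CASM3C, HDF3CGF, KF3CT, MyoF, Mphg). Compounds were added 1 h before stimulation and left for 24 h (MyoF 48 h; BT 72 h for soluble read-outs or 6 d for IgG). Biomarkers were read by ELISA, cytotoxicity by SRB, PBMC viability and proliferation by Alamar Blue. Each well value was divided by the mean of 8 DMSO control wells on the same plate and log10 transformed; duplicate blinded samples were tested at 4 concentrations.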

[2] = compound: O=C(O)C=C(C(F)(F)F)C(F)(F)F [3,3-Bis(trifluoromethyl)-2-propenoic acid] (in DMSO)
Protocol: as §1

[3] = compound: OCCC(F)(F)C(F)(F)C(F)(F)C(F)(F)F [4:2 Fluorotelomer alcohol] (in DMSO)
Protocol: as §1

Perfluoroundecanoic acid = compound: O=C(O)C(F)(F)C(F)(F)C(F)(F)C(F)(F)C(F)(F)C(F)(F)C(F)(F)C(F)(F)C(F)(F)C(F)(F)F [Perfluoroundecanoic acid] (in DMSO); details: 6700 nM
Protocol: as §1

[4] = compound: O=C(O)C(F)(OC(F)(F)C(F)(OC(F)(F)C(F)(OC(F)(F)C(F)(F)C(F)(F)F)C(F)(F)F)C(F)(F)F)C(F)(F)F [Perfluoro-(2,5,8-trimethyl-3,6,9-trioxadodecanoic)acid] (in DMSO)
Protocol: as §1

[5] = compound: C[C@@H]1C[C@H]2[C@@H]3CCC4=CC(=O)C=C[C@]4(C)[C@@]3(F)[C@@H](O)C[C@]2(C)[C@@]1(O)C(=O)COP(=O)(O)O [Dexamethasone sodium phosphate] (in DMSO)
Protocol: as §1

[6] = compound: O=C(O)C(F)(F)OC(F)(F)C(F)(F)OC(F)(F)C(F)(F)OC(F)(F)C(F)(F)C(F)(F)C(F)(F)F [Perfluoro-3,6,9-trioxatridecanoic acid] (in DMSO); details: 6700 nM
Protocol: as §1

[7] = compound: CO[Si](C)(CCC(F)(F)C(F)(F)C(F)(F)C(F)(F)C(F)(F)C(F)(F)F)OC [Dimethoxymethyl((perfluorohexyl)ethyl)silane] (in DMSO)
Protocol: as §1

Which “level (log10)” value ([1]; 6700 nM) does the source give for lMphg:sIL-10 here?
Its value is -0.006 ± 0.061.

What about the “level (log10)” value ([1]; 20000 nM) of the same test system?
Its value is -0.135 ± 0.1.

And the “level (log10)” value ([1]; 60000 nM)?
Its value is -0.0905 ± 0.043.

And the “level (log10)” value ([2]; 6700 nM)?
Its value is -0.2 ± 0.0071.

What about the “level (log10)” value ([2]; 20000 nM) of the same test system?
Its value is -0.325 ± 0.029.

And the “level (log10)” value ([2]; 60000 nM)?
Its value is -0.547 ± 0.028.

What about the “level (log10)” value ([3]; 6700 nM) of the same test system?
Its value is -0.0195 ± 0.0078.

What about the “level (log10)” value ([3]; 20000 nM) of the same test system?
Its value is -0.0385 ± 0.022.

What about the “level (log10)” value ([3]; 60000 nM) of the same test system?
The value was -0.025 ± 0.0099.

And the “level (log10)” value (Perfluoroundecanoic acid)?
Its value is 0.0325 ± 0.016.

And the “level (log10)” value ([4]; 1100 nM)?
Its value is -0.0195 ± 0.0021.

And the “level (log10)” value ([4]; 3300 nM)?
The value was -0.0265 ± 0.084.

What about the “level (log10)” value ([4]; 10000 nM) of the same test system?
The value was -0.05 ± 0.072.

What about the “level (log10)” value ([5]; 1500 nM) of the same test system?
Its value is -0.286 ± 0.05.

And the “level (log10)” value ([5]; 4400 nM)?
The value was -0.503 ± 0.054.

What about the “level (log10)” value ([5]; 13000 nM) of the same test system?
Its value is -0.62 ± 0.056.

What about the “level (log10)” value ([5]; 40000 nM) of the same test system?
Its value is -0.646 ± 0.054.

What about the “level (log10)” value [6] of the same test system?
Its value is -0.0585 ± 0.00071.

What about the “level (log10)” value ([7]; 6700 nM) of the same test system?
Its value is -0.0465 ± 0.013.

And the “level (log10)” value ([7]; 20000 nM)?
The value was -0.085 ± 0.014.
